The numbers were not newly measured in patent US6964946B1, “Oral pharmaceutical compositions containing taxanes and methods of treatment employing the same” (Baker Norton Pharmaceuticals, Inc., priority 1995, dated 2005), which cites them from elsewhere.

The structures appear in SMILES notation. “Also recorded” adds a separate entry of the source.

As to `CC(=O)O[C@H]1C(=O)[C@@]2(C)[C@H]([C@H](OC(=O)c3ccccc3)[C@]3(O)C[C@H](OC(=O)[C@H](O)[C@@H](NC(=O)c4ccccc4)c4ccccc4)C(C)=C1C3(C)C)[C@]1(OC(C)=O)CO[C@@H]1C[C@@H]2O` [Paclitaxel, paclitaxel], in the data set with tubulin, the “level at which inhibition of tubulin disassembly occurs” value is listed as “about 0.1 μM; also recorded: about 85 ng/ml”. Also, the “level at which inhibition of protein isoprenylation occurs” value in the data set with protein isoprenylation was “about 0.03 μM; also recorded: about 25 ng/ml”.
